Like-named read-outs stand apart in the source and are kept apart here.
Columns and labels:
[1] = molecular target: T1, OsD14 (Oryza sativa subsp. japonica, UniProt Q10QA5); test: Intrinsic tryptophan fluorescence assay, OsD14; assay type: binding, rice
T1 construct: made in house; host or cells: E. coli BL21 (DE3)
T1 sequence (Q10QA5 1-318): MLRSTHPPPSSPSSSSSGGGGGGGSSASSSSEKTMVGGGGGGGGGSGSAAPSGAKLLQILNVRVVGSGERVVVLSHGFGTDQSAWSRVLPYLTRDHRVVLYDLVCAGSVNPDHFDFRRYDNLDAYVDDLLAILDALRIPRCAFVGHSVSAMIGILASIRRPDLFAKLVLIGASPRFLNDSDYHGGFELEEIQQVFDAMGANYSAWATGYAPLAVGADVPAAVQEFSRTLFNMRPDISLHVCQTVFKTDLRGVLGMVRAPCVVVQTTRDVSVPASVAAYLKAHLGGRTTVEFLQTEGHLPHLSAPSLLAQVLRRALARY
Description: (§1) Striga hermonthica ShHTL7 cDNA was used, GenBank accession KR013127, kindly provided by Tsuyoshi Ota, The University of Tokyo, Japan. Arabidopsis D14 (AtD14) cDNA, GenBank accession AY097402, was synthesized and cloned into pUC57 (GenScript). ShHTL7 and OsD14 cDNAs were amplified by RT-PCR using the primers shown in Supplementary Table S2, digested with BamHI and XhoI, and ligated into BamHI/XhoI-digested pGEX-6P-1 expression vector (GE Healthcare). Integrity of plasmids was confirmed by sequencing (KAUST Bioscience Core Lab). The plasmids were then transformed into E. coli BL21 (DE3) cells. The cells were grown in LB broth containing ampicillin ([…]), incubated at 37 °C until OD600 of 0.6 and induced with 0.1 mM isopropyl-β-D-thiogalactopyranoside at 16 °C for 16 h. Harvested cells were resuspended in lysis buffer: 50 mM Tris–HCl (pH 8.0), 200 mM NaCl, 0.5% Tween-20 and 2 mM dithiothreitol (DTT). After sonication on ice for 10 min, the lysate was centrifuged at 75 000 g for 30 min at 4 °C. Supernatant was allowed to bind to glutathione–sepharose beads (GE Healthcare) for 2 h at 4 °C, washed 3 times with buffer (50 mM Tris-HCl (pH 8.0), 200 mM NaCl, 2 mM DTT), and eluted by cleaving the GST moiety with PreScission™ Protease (GE Healthcare) at 4 °C overnight. Eluted protein was further purified by gel filtration using a HiLoad 16/60 Superdex200 prep grade column (GE Healthcare) on an AKTA prime system (GE Healthcare) in gel filtration buffer (10 mM HEPES pH 7.5, 50 mM KCl and 2 mM DTT). Protein eluted as a sharp single peak and purity was judged by 4–15% SDS-PAGE (Bio-Rad). Purified protein was concentrated using an Amicon 10K filter unit (Merck Millipore) and stored at −80 °C until use. A similar expression and purification protocol was followed for OsD14 protein, except that OsD14 was eluted from glutathione resins using 0.2 mM reduced glutathione (Sigma-Aldrich) without cutting the GST tag.
ShHTL7/D14 tryptophans were excited at 280 nm and emission intensity was measured at 333 nm. ShHTL7/D14 (10 μM) was incubated at various dilutions (0.2, 0.4, 0.8, 1.6, 3.12, 6.25, 12.5, 25, and 50 μM) of GR24 and MPs for 30 min at room temperature before measurement. Each concentration point was measured in triplicate. Emitted fluorescence was monitored using a spectraMaxi3 plate reader (Molecular Devices) in 96-well black plates. Changes in tryptophan fluorescence intensity occur due to conformational changes in protein when it is bound to ligand; differences in fluorescence intensity were recorded and analysed. Data were normalized and dissociation coefficient (Kd) values were calculated by fitting to a binding saturation single-site model with Prism 6 (GraphPad).

[2] = molecular target: T1, OsD14; test: In vitro hydrolysis assay, OsD14; assay type: biochemical, rice; conditions: 10 µM substrate, 50 µg ml^−1 protein, 37 °C, HPLC
Description: as §1
The hydrolysis of GR24 and MPs by ShHTL7/OsD14 was performed in a total volume of 0.5 ml of phosphate-buffered saline containing 10 µM of substrate. Purified ShHTL7/OsD14 was added at a concentration of 50 µg ml^−1 and incubated for the indicated time at 37 °C. After adding 1-indanol (10 µl of a 2.5 mg ml^−1 solution in methanol), as internal standard, solutions were filtered and transferred to HPLC vials. Hydrolysis of substrates was monitored by HPLC analysis using a Zorbax Eclipse Plus C18 column (3.5 µm, 2.1 × 150 mm), eluted by a gradient from 10% to 90% acetonitrile in water within 15 min, keeping the final condition for 4 min. […] Eluted compounds were detected using a diode array detector. Amounts of remaining substrates were determined by calculating corresponding peaks, in comparison with an internal standard.

[3] = system: Arabidopsis seedlings; test: Arabidopsis lateral root density; assay type: in vivo; conditions: 1.0 μM, 8-day-old seedlings
Procedure: (§2) Sterilized Arabidopsis seeds were sown on half-strength MS (with 0.5% sucrose+1% agar, 0.5 g l^−1 MES, pH 5.7) plates supplemented with GR24 or MPs (at 1.0 μM). Plates were stored at 4 °C in darkness for 3 d and then vertically grown at 22 °C in a Percival incubator under long day condition (16 h at 22 °C/8 h at 16 °C day/night, 60% relative humidity, 60–70 μmol m^−2 s^−1 white light) for 8 d. For determining the effect on lateral root density and primary root length, at least 30 seedlings were measured using ImageJ software after scanning roots.

[4] = system: Arabidopsis seedlings; test: Arabidopsis primary root length; assay type: in vivo; conditions: 1.0 μM
Procedure: as §2

[5] = 10 μM protein, 30 min, room temperature, read-out: Kd, OsD14

Structure (SMILES) | Kd [1] [µM] | hydrolysis rate by OsD14 (rank order) [2] | reduction of lateral root number/density [3] | increase in primary root length [4] | Kd [1, 5] [µM]
CC1=CC(OC=C2C(=O)OC3c4ccccc4CC23)OC1=O (stereo not shown) [GR24, reference compound] | 4.17 ± 0.32 | highest hydrolysis rate with MP1, followed by MP7, GR24, and finally MP3 | – | – | –
COC(=O)/C(=C/OC1C=C(C)C(=O)O1)c1ccc([N+](=O)[O-])cc1 (stereo not shown) [MP1, (E)-methyl 3-(4-methyl-5-oxo-2,5-dihydrofuran-2-yloxy)-2-(4-nitrophenyl)acrylate] | – | highest hydrolysis rate with MP1, followed by MP7, GR24, and finally MP3 | most efficient compound and showed an activity higher than that of GR24 | most active compound | 3.52 ± 0.35
COC(=O)/C(=C/OC1C=C(C)C(=O)O1)c1ccccc1 (stereo not shown) [MP3, (E)-methyl 3-(4-methyl-5-oxo-2,5-dihydrofuran-2-yloxy)-2-phenylacrylate] | – | highest hydrolysis rate with MP1, followed by MP7, GR24, and finally MP3 | – | weaker activity than GR24 and MP8 | 7.46 ± 0.53
COC(=O)/C(=C/OC1C=C(C)C(=O)O1)c1ccc(Cl)cc1 (stereo not shown) [MP7] | – | highest hydrolysis rate with MP1, followed by MP7, GR24, and finally MP3 | slightly more active than GR24 | more efficient than GR24 | 8.74 ± 0.83

Reference: PMC5913645, “Methyl phenlactonoates are efficient strigolactone analogs with simple structure” (Journal of Experimental Botany, 2017)
